Active and inactive are the calls of the source. The rule behind the calls is not given here.
Legend:
HT-29 [1] = assay: Cytotoxicity against human HT-29 cells assessed as growth inhibition at 125 uM after 3 days by XTT assay relative to control; assay type: functional; conditions: HT-29, 72 h, read-out: GI
PC-3 [2] = assay: Cytotoxicity against human PC3 cells assessed as growth inhibition at 125 uM after 3 days by XTT assay relative to control; assay type: functional; conditions: PC-3, 72 h, read-out: GI
[3] = Cytotoxicity against mock-infected human MT4 cells assessed as reduction in cell viability after 96 hrs by MTT assay; assay type: cell-based
[4] = system: Human immunodeficiency virus 1; assay: Antiviral activity against HIV1 3B infected in human MT4 cells assessed as protection against virus-induced cytopathogenicity after 4 days by MTT assay; assay type: functional, organism-based; conditions: Human immunodeficiency virus 1, 3B, MT4, 96 h
Escherichia coli = assay: Antibacterial activity against Escherichia coli DSM 1103; assay type: functional
Staphylococcus aureus = assay: Antibacterial activity against Staphylococcus aureus DSM 2569; assay type: functional
Enterococcus faecalis = assay: Antibacterial activity against Enterococcus faecalis DSM 2570; assay type: functional
PC-3 [5] = assay: Cytotoxicity against human PC3 cells assessed as growth inhibition at 10 uM after 3 days by XTT assay relative to control; assay type: functional; conditions: PC-3, 72 h, read-out: GI
PC-3 [6] = assay: Cytotoxicity against human PC3 cells assessed as growth inhibition at 10 nM after 3 days by XTT assay relative to control; assay type: functional; conditions: PC-3, 72 h, read-out: GI
HT-29 [7] = assay: Cytotoxicity against human HT-29 cells assessed as growth inhibition at 10 nM after 3 days by XTT assay; assay type: functional, cell-based
Caenorhabditis elegans [8] = assay: Antihelmintic activity against Caenorhabditis elegans Bristol N2 assessed as mortality at 100 ug/ml after 30 mins by microscopic analysis (reference value: 3 +/- 3%); assay type: functional
Caenorhabditis elegans [9] = assay: Antihelmintic activity against Caenorhabditis elegans Bristol N2 assessed as mortality at 12.5 ug/ml after 30 mins by microscopic analysis; assay type: functional, organism-based
Caenorhabditis elegans [10] = assay: Antihelmintic activity against Caenorhabditis elegans Bristol N2 assessed as mortality at 10 ug/ml after 30 mins by microscopic analysis (reference value: 3 +/- 3%); assay type: functional, organism-based

Work on `C[C@@H]1CC[C@@]2(OC1)O[C@H]1[C@@H](O)[C@H]3[C@@H]4CC[C@H]5C[C@@H](O[C@@H]6O[C@H](CO)[C@H](O[C@@H]7O[C@H](CO)C(O)[C@H](O[C@@H]8OC[C@@H](O)[C@H](O)[C@H]8O)[C@H]7O[C@@H]7O[C@H](CO)[C@H](O)[C@H](O[C@@H]8O[C@H](CO)[C@@H](O)[C@H](O)[C@H]8O)[C@H]7O)[C@H](O)[C@H]6O)[C@H](O)C[C@]5(C)[C@H]4CC[C@]3(C)[C@H]1[C@@H]2C` (some centres not stated) [DIGITONIN] yielded an inhibition of growth at 125 µM (HT-29 [1]) of 100% and an inhibition of growth at 125 µM (PC-3 [2]) of 100%.
In the case of `CCC(C)C(=O)c1c(O)cc2c3c1OC1(C)CCC(C3C1)C(C)(C)O2` (configuration not stated), the CC50 at 96 h [3] is reported as > 100 µM, the EC50 [4] is reported as > 100 µM and the MIC (Escherichia coli) is reported as > 1 µg/mL. For the same compound, the MIC (Staphylococcus aureus) was > 1 µg/mL, the MIC (Enterococcus faecalis) was > 1 µg/mL and the inhibition of growth at 10 µM (PC-3 [5]) was < 20%. The inhibition of growth at 0.01 µM (PC-3 [6]) was < 20% and the “growth inhibition (GI)” value (HT-29 [7]) was “inactive”.
With `CCC(C)C(=O)c1c(O)cc(O)c2c1O[C@](C)(CCC=C(C)C)[C@@H](O)C2` (some centres not stated) [EMPETRIKARINOL B] the CC50 at 96 h [3] was 45 µM, the EC50 [4] was > 45 µM and the MIC (Escherichia coli) was > 1 µg/mL. The MIC (Staphylococcus aureus) was > 1 µg/mL, the MIC (Enterococcus faecalis) was > 1 µg/mL and the inhibition of growth at 10 µM (PC-3 [5]) was < 20%. The inhibition of growth at 0.01 µM (PC-3 [6]) was < 20%, the “growth inhibition (GI)” value (HT-29 [7]) was “inactive” and the Activity (Caenorhabditis elegans [8]) was 0.7%. For the same compound, the Activity (Caenorhabditis elegans [9]) was “inactive”.
IVERMECTIN gave an Activity (Caenorhabditis elegans [10]) of 99%.
In the case of `CC(C)C(=O)c1c(O)cc(O)c2c1O[C@]1(C)CC[C@@H](O)C(C)(C)[C@H]1C2` (relative stereo), the CC50 at 96 h [3] is reported as 41 µM, the EC50 [4] is reported as > 41 µM and the MIC (Escherichia coli) is reported as > 1 µg/mL. The MIC (Staphylococcus aureus) was > 1 µg/mL, the MIC (Enterococcus faecalis) was > 1 µg/mL and the inhibition of growth at 10 µM (PC-3 [5]) was < 20%. The inhibition of growth at 0.01 µM (PC-3 [6]) was < 20%, the “growth inhibition (GI)” value (HT-29 [7]) was “inactive” and the Activity (Caenorhabditis elegans [8]) was 0.7%. For the same compound, the Activity (Caenorhabditis elegans [9]) was “inactive”.
In the case of `CCC(C)C(=O)c1c(O)cc2c3c1OC(C)(C)C1CCC(C)(CC31)O2` (configuration not stated) [EMPETRIFRANZINAN C], the CC50 at 96 h [3] is reported as 45 µM, the EC50 [4] is reported as > 45 µM and the MIC (Escherichia coli) is reported as > 1 µg/mL. The MIC (Staphylococcus aureus) was > 1 µg/mL, the MIC (Enterococcus faecalis) was > 1 µg/mL and the inhibition of growth at 10 µM (PC-3 [5]) was 20%. For the same compound, the inhibition of growth at 0.01 µM (PC-3 [6]) was < 20% and the “growth inhibition (GI)” value (HT-29 [7]) was “inactive”.
With `CC(C)=CCC/C(C)=C/Cc1c(O)cc(O)c(C(=O)c2ccccc2)c1O` the CC50 at 96 h [3] was 69 µM, the EC50 [4] was > 69 µM and the MIC (Escherichia coli) was > 1 µg/mL. The MIC (Staphylococcus aureus) was > 1 µg/mL, the MIC (Enterococcus faecalis) was > 1 µg/mL and the inhibition of growth at 10 µM (PC-3 [5]) was < 20%. For the same compound, the inhibition of growth at 0.01 µM (PC-3 [6]) was < 20%, the “growth inhibition (GI)” value (HT-29 [7]) was “inactive” and the Activity (Caenorhabditis elegans [8]) was 0.7%. For the same compound, the Activity (Caenorhabditis elegans [9]) was “inactive”.
In the case of `CC(C)=CCCC1(C)Oc2c(c(O)cc(O)c2C(=O)C(C)C)CC1O` (configuration not stated), the CC50 at 96 h [3] is reported as 84 µM, the EC50 [4] is reported as > 84 µM and the MIC (Escherichia coli) is reported as > 1 µg/mL. The MIC (Staphylococcus aureus) was > 1 µg/mL, the MIC (Enterococcus faecalis) was > 1 µg/mL and the inhibition of growth at 10 µM (PC-3 [5]) was < 20%. The inhibition of growth at 0.01 µM (PC-3 [6]) was < 20% and the “growth inhibition (GI)” value (HT-29 [7]) was “inactive”.
Compound `CC(C)C(=O)c1c(O)cc2c3c1OC(C)(C)C1CCC(C)(CC31)O2` (configuration not stated) has a CC50 at 96 h [3] of 18.7 µM.
In the case of `CC(C)=CCC/C(C)=C/Cc1c(O)cc(O)c(C(=O)C(C)C)c1O`, the CC50 at 96 h [3] is reported as > 100 µM, the EC50 [4] is reported as > 100 µM and the MIC (Escherichia coli) is reported as > 1 µg/mL. For the same compound, the MIC (Staphylococcus aureus) was > 1 µg/mL, the MIC (Enterococcus faecalis) was > 1 µg/mL and the inhibition of growth at 10 µM (PC-3 [5]) was < 20%. The inhibition of growth at 0.01 µM (PC-3 [6]) was < 20%, the “growth inhibition (GI)” value (HT-29 [7]) was “inactive” and the Activity (Caenorhabditis elegans [8]) was 0.7%. The Activity (Caenorhabditis elegans [9]) was “inactive”.
With `CC(C)C(=O)c1c(O)cc2c3c1OC1(C)CCC(C3C1)C(C)(C)O2` (configuration not stated) the CC50 at 96 h [3] was > 100 µM, the EC50 [4] was > 100 µM and the MIC (Escherichia coli) was > 1 µg/mL. The MIC (Staphylococcus aureus) was > 1 µg/mL, the MIC (Enterococcus faecalis) was > 1 µg/mL and the inhibition of growth at 10 µM (PC-3 [5]) was 20%. The inhibition of growth at 0.01 µM (PC-3 [6]) was < 20% and the “growth inhibition (GI)” value (HT-29 [7]) was “inactive”.
Compound `c1ccc2[nH]c(-c3cscn3)nc2c1` [THIABENDAZOLE] has an Activity (Caenorhabditis elegans [8]) of 19%.
In the case of `CCC(C)C(=O)c1c(O)cc(O)c(C/C=C(\C)CCC=C(C)C)c1O` (configuration not stated), the CC50 at 96 h [3] is reported as 26.7 µM, the EC50 [4] is reported as > 26.7 µM and the MIC (Escherichia coli) is reported as > 1 µg/mL. For the same compound, the MIC (Staphylococcus aureus) was > 1 µg/mL, the MIC (Enterococcus faecalis) was > 1 µg/mL and the inhibition of growth at 10 µM (PC-3 [5]) was 20%. For the same compound, the inhibition of growth at 0.01 µM (PC-3 [6]) was < 20%, the “growth inhibition (GI)” value (HT-29 [7]) was “inactive” and the Activity (Caenorhabditis elegans [8]) was 37%. For the same compound, the Activity (Caenorhabditis elegans [9]) was “inactive”.

— ChEMBL document CHEMBL3611984, “Isolation and anticancer, anthelminthic, and antiviral (HIV) activity of acylphloroglucinols, and regioselective synthesis of empetrifranzinans from Hypericum roeperianum” (Bioorg Med Chem, 2015)
